In ChEMBL document CHEMBL1201862, “PubChem BioAssay data set” (2004) one finds IC50, EC50 and AC50 data, which are given here for two compounds.

The nature of assay [1]: insulin promoter down-regulators in MIN6 cells, imaging, high-content screening, mouse beta cells (AID 1628). The format is functional.
The nature of assay [2]: cytotoxicity in MIN6 insulinoma cells, dose response, cytotoxicity control, cell-based, mouse insulinoma (AID 2122).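 Also: confirmatory high-throughput counterscreen run to flag cytotoxic compounds; mouse MIN-6 beta cells carrying an insulin promoter eGFP reporter.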 The format is functional.
The next assay has as its target Beta-galactosidase (Escherichia coli, UniProt Q8VNN2). The assay can be described thus: PubChem AID 485352. The format is functional.
Assay [3] in a line: inhibitors of intracellular T. cruzi replication, confirmation, NIH3T3 host cells, beta-gal luminescence (AID 2044).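 Also: intracellular parasites grown in NIH/3T3 mouse fibroblasts as host cells; luminescent beta-galactosidase reporter signal from transgenic T. cruzi replicating inside host cells; inhibitors lower the luminescence signal.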 The format is functional, cell-based.
Assay [4] concerns the target T1, Type-1 angiotensin II receptor (Homo sapiens, UniProt P30556).
T1 sequence (P30556 whole entry): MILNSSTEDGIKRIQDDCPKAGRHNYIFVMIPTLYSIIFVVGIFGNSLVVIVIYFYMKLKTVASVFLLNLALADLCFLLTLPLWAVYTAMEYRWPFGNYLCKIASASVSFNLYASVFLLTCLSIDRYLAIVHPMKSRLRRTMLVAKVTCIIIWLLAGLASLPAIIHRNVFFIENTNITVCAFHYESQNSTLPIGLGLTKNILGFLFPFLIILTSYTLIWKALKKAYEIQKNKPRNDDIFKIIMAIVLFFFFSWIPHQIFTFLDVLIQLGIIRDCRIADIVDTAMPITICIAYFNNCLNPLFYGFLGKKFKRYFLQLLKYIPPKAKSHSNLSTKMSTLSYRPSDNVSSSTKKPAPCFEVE
Briefly: AT1 receptor antagonists, dose response, selectivity assay for APJ receptor antagonist project, cell-based, uHTS hits (AID 463214).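 Also: antagonist potency against angiotensin II stimulated AT1 response.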 It counts as functional.

A short description of assay [5]: cytotoxicity toward NIH3T3 fibroblasts, dose response, counter-screen, cell-based, ATP luminescence, mouse fibroblasts (AID 2010).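 Also: cells exposed to compound for about 90 hours before reading.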 It counts as functional. For orientation: Counterscreens check selectivity or assay interference.
In the next assay the target is T2, Hexokinase HKDC1 (Homo sapiens, UniProt Q2TB90).
T2 sequence (Q2TB90 whole entry): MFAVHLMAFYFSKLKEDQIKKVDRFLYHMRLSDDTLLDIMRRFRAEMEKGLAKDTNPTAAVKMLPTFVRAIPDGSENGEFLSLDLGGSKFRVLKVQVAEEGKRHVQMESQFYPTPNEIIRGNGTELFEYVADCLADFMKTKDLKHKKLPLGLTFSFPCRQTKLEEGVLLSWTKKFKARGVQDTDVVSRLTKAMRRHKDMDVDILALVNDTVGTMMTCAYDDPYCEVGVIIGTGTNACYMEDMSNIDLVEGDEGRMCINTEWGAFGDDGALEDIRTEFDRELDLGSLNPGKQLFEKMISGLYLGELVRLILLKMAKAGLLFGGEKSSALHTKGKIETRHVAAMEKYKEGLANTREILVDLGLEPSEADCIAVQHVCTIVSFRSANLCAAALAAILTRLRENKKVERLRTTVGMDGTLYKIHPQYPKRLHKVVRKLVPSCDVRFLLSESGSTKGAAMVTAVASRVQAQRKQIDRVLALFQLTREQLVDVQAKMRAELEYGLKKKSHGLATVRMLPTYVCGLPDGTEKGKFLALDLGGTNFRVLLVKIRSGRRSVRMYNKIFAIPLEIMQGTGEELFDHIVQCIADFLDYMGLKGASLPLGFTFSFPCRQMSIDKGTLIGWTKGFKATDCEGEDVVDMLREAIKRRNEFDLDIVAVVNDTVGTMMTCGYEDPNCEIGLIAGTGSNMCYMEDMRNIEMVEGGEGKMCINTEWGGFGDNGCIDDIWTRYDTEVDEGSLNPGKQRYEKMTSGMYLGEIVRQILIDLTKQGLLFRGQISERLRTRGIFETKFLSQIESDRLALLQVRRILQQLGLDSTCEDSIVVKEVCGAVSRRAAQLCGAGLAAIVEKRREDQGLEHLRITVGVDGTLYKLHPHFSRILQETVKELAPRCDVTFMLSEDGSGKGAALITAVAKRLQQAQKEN
The assay can be described thus: HKDC1 hexokinase activators, dose response, biochemical, W721R variant (AID 504730). It counts as functional.

The next assay addresses Hexokinase-1 (Homo sapiens, UniProt P19367). The assay can be described thus: hexokinase 1 activators, dose response, selectivity assay for HKDC1 activator project, biochemical (AID 504762). The format is functional.
In assay [6] the test system is Streptococcus sp. 'group A'. The assay can be described thus: growth inhibition of control SK(-) GAS strain, dose response, counter-screen for streptokinase expression inhibitor project, luminescence, kanamycin, BacTiterGlo, confirmation (AID 1900). The format is functional, organism-based.
Assay [7] can be described thus: cells. It counts as functional, cell-based.
For assay [8], the target named is T3, SUMO-activating enzyme (Homo sapiens, UniProt Q9UBT2). The assay can be described thus: SUMOylation inhibitor hit validation, confirmation, SUMOylation inhibitor project, biochemical, AlphaScreen (AID 2018). It counts as functional. (In general: Alpha assays give light when donor and acceptor beads are brought close together.)
T3 sequence (Q9UBE0 whole entry): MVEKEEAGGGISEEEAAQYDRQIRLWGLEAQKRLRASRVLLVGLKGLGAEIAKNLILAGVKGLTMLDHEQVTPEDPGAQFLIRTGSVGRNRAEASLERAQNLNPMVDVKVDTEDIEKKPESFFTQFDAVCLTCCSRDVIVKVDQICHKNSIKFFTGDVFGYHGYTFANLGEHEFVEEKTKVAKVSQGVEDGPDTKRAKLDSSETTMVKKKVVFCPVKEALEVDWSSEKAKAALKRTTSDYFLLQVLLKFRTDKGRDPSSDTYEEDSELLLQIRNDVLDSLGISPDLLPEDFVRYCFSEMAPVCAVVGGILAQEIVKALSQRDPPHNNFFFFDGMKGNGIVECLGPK
T3 sequence (Q9UBT2 whole entry): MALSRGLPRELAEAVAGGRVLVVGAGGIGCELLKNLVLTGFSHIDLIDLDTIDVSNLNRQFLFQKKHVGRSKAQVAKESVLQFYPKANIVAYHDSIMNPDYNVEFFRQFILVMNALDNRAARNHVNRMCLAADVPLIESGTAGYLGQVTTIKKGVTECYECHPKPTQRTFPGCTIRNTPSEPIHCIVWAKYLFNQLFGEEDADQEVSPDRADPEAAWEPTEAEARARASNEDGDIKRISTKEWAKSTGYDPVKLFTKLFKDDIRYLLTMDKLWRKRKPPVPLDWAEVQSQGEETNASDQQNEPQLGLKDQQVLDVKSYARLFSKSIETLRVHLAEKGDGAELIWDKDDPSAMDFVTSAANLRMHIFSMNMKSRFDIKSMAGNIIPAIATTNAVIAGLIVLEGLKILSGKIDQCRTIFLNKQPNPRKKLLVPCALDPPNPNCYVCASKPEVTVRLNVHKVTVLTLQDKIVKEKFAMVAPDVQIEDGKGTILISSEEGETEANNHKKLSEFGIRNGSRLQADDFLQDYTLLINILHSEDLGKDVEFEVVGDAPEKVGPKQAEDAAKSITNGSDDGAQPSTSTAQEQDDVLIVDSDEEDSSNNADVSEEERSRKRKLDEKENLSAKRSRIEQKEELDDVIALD
In assay [9] the target is T3, SUMO-activating enzyme. Briefly: inhibitors of in vitro SUMOylation cascade, primary screen, biochemical, HTRF, uHTS (AID 2006). The format is protein-complex assay.
Assay [10] is described as follows: cells. It counts as functional, cell-based. The source holds these as a separate data set.
For another assay, the system named is Streptococcus. The assay can be described thus: Group A Streptococcus viability loss, dose response, counter-screen for streptokinase expression inhibitor project, luminescence, BacTiterGlo (AID 1915).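 Also: potency for reduction of bacterial viability or growth.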 It counts as functional, organism-based.
Assay [11] is described as follows: Luminescence Cell-Based Dose Retest to Confirm Inhibitors of Cancer Stem Cells. [Related pubchem assays (depositor defined):AID2717, AID2721]. It counts as functional. The following applies: Homo sapiens.
The test system of a further assay is INS1. The assay can be described thus: beta cell apoptosis inhibitors, cytokine rescue, dose response, luminescence, retest (AID 449756).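 Also: cell death triggered by IL-1 beta plus TNF-alpha plus IFN-gamma mixture; protective hits raise ATP signal compared with cytokine alone wells.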 It counts as functional, cell-based. The following applies: Rattus norvegicus.
In a further assay the target is Albumin (Bos taurus, UniProt P02769). The assay can be described thus: Counterscreen for inhibitors of T-cell receptor (TCR)-CD3 interaction: Fluorescence-based biochemical high throughput dose response assay to identify inhibitors of T-cell receptor (TCR)-CD3 interaction using a TAMRA-labeled BSA probe. The format is functional.
Sequence of Albumin (P02769 whole entry): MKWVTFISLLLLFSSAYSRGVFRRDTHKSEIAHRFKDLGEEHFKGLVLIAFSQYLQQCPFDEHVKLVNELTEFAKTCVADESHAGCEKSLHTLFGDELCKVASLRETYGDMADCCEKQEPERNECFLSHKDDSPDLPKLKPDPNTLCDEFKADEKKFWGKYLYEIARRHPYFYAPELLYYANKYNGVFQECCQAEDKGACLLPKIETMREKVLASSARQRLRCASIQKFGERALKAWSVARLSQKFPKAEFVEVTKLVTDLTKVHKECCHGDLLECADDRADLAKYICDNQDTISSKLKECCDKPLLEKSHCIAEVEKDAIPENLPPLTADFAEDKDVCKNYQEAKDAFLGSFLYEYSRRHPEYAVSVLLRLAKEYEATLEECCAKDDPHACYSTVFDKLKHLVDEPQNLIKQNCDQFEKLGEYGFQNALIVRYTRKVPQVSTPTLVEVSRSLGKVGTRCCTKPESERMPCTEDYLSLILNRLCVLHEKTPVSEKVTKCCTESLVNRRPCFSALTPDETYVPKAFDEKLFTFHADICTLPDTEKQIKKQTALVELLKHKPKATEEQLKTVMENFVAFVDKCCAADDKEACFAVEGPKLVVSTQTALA

Calls of active or inactive are those of the source. Bounds are passed on as bounds.

For orientation: IC50 means the concentration that gives 50% inhibition. What is called EC50 is the concentration needed to bring the measured effect to its halfway point. Broadly, the AC50 is the concentration at which the activity in the assay is half-maximal.

Sequence of Hexokinase-1 (P19367 whole entry): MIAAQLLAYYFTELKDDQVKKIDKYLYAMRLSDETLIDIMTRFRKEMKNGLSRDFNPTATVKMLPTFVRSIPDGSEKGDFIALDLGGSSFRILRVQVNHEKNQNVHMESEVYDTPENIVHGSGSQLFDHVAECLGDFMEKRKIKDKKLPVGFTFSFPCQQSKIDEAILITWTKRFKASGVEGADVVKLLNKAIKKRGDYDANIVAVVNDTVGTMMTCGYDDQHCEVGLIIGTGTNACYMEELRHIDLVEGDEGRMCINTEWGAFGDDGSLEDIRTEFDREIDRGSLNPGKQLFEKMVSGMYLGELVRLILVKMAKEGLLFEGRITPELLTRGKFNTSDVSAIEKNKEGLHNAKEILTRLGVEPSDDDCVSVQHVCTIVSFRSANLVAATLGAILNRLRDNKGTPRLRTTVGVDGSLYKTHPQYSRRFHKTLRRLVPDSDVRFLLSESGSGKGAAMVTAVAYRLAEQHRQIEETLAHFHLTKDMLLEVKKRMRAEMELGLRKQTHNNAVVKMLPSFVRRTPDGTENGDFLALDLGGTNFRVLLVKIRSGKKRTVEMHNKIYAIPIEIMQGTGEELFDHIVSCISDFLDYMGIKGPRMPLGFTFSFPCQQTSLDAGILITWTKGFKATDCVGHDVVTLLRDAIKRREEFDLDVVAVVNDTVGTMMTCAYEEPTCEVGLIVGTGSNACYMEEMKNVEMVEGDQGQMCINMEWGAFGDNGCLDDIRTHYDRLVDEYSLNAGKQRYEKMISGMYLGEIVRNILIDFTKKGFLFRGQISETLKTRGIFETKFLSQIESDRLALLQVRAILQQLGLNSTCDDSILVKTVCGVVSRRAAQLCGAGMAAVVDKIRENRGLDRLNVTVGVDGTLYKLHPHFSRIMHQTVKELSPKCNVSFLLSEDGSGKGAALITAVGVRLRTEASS
Sequence of Beta-galactosidase (Q8VNN2 whole entry): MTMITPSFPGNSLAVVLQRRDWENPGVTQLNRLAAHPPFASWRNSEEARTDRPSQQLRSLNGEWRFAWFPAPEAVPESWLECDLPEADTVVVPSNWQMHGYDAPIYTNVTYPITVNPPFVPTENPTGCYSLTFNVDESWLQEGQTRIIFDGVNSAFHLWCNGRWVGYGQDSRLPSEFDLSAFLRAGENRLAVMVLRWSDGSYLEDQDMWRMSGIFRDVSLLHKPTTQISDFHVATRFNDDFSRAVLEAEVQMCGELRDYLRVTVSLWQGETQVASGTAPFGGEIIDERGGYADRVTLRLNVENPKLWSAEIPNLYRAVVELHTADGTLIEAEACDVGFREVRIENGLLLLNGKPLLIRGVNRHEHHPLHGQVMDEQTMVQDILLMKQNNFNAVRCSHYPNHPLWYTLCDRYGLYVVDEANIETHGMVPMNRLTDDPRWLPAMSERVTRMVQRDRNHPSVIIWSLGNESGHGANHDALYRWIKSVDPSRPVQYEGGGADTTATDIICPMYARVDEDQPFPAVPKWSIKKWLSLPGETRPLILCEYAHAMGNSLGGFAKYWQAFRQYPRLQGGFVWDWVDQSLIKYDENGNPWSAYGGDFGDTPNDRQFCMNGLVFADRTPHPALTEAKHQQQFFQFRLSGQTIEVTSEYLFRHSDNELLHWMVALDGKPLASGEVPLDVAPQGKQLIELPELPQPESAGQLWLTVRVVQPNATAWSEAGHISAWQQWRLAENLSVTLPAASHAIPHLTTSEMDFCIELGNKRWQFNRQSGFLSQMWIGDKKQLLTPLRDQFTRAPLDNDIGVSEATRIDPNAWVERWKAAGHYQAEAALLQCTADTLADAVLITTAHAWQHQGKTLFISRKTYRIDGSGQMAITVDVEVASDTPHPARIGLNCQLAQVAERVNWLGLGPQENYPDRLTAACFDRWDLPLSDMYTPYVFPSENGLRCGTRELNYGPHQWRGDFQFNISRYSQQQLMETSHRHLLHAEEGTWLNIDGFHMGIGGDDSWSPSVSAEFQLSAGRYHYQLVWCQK

As for `Cc1ccc(N=Nc2ccc(O)c3ncccc23)cc1C`, the figures for the IC50 in [1], in assay [2] and in assay [4] were 2.41 µM (active), 1.66 µM (active) and 35.3 µM (not active), respectively. In addition, the EC50 at Beta-galactosidase is > 40 µM (inactive); in assay [3], 1.13 µM (active); in [5] it was > 60 µM (inconclusive); at Hexokinase HKDC1 it was 21.7 µM (inactive); at Hexokinase-1, > 80 µM (inactive).

With `O=c1c2ccccc2nc(COc2ccccc2)n1/N=C/c1cc([N+](=O)[O-])ccc1O`, the EC50 is 5.71 µM (active) in assay [6], 24.3 µM (active) in “cells [7]”, 22.8 µM (active) in “cells [10]” and 4.65 µM (active) with Streptococcus. Also, the figures for the IC50 on SUMO-activating enzyme [8], at SUMO-activating enzyme [9] and on Albumin were 0.99 µM (active), 32.1 µM (active) and > 94.1 µM (inactive), respectively. Moreover, the AC50 is 10.2 µM (active) in assay [11] and 3.74 µM (active) in the assay on INS1.
